Assays:
DIO mice = assay: Food intake and body weight in diet-induced obese mice, repeated treatment; assay type: in vivo; settings: mice, acute and repeated 28 d, highest dose tested 15 mg/kg
Method: Body weight and food intake were studied because they are reduced by repeated treatment with rimonabant both in mice[31] and in humans. DIO mice were used because the effects of CB1 antagonists are of greater amplitude in obese mice than in lean mice. Male C57BL/6J mice (8 weeks old) were fed ad libitum with a high-fat diet (HFD) for 8 weeks before the start of the pharmacological treatments. During pharmacological treatments, the HFD was maintained, and food intake and body weight were measured daily. The food consumed was calculated by subtracting the food left in the hoppers from the initial pre-weighed amount.

rats = assay: Irwin test and body temperature (GLP); assay type: in vivo; settings: rats, 2, 9 and 36 mg kg^−1 oral
Method: The study involved four groups of six male Wistar rats weighing between 154.0 g and 185.9 g. […] On study day, animals were first scored by the Irwin standardized observation battery, and body temperature was measured. […] Irwin scores and measurement of body temperature were done again at 1, 3, 6, 8 and 24 h after dose.

COc1ccc(CO[C@H]2CC[C@@]3(C)C(=CC[C@H]4[C@@H]5CC[C@H](C(C)=O)[C@@]5(C)CC[C@@H]43)C2)cc1 [AEF0117, 3β-(4-methoxybenzyloxy)pregn-5-en-20-one]
Overall effect: inhibition of spontaneous food-intake (DIO mice): No
effect on spontaneous behavior in the home cage (Irwin test) (rats): had no effect
